Assay results reported in patent US12365658B2, “Benzothia(di)azepine compounds and their use as bile acid modulators” (Albireo AB, priority 2021, dated 2025).

Key:
Human LBAT = target: T1, Human LBAT (Homo sapiens, UniProt Q14973); test: LBAT (h/m) assay, human LBAT-overexpressing cells, 3H-taurocholic acid uptake; assay type: cell-based; details: 0.3 μM 3H-taurocholic acid and 7.5 μM cold taurocholic acid, 20 minutes, read-out: hLBAT IC50
T1 construct: expressed in transfected cells; kept under Geneticin selection
T1 sequence (Q14973 1-349): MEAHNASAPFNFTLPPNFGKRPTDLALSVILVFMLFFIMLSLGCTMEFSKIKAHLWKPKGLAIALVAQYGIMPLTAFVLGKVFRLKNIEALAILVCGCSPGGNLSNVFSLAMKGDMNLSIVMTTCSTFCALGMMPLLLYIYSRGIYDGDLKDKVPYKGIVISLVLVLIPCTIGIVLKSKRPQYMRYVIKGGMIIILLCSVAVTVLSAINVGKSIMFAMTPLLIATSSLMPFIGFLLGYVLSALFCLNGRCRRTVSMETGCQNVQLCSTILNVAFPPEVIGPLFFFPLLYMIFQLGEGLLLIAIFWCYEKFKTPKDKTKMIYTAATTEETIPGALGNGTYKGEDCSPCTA
Description: LBAT (h/m) Assay Protocol
20,000 cells (Human or Mouse LBAT-overexpressing cells) were seeded in 96-wells plate (Corning CLS3809) in 100 μL MEM-alpha medium (Gibco 12571-063) supplemented with 10% FBS (Gibco 10438026) containing Geneticin (Gibco 10131-027) (1 mg/mL) and incubated at 37° C. in 5% CO2 for 24 hours. After incubation, media was decanted from the wells and cells were washed two times with 300 μL of basal MEM-alpha medium (FBS-free). After decanting basal MEM-alpha medium each time, plates were tapped against paper towel to ensure maximum removal of residual media.
For human LBAT, incubation mix was prepared by adding test inhibitor dilutions (3-fold serial dilution in DMSO (Sigma D2650), 10 points) in MEM-alpha (without FBS) containing 0.3 μM 3H-taurocholic acid (ARC ART-1368) and 7.5 μM cold taurocholic acid (Sigma T4009) (maintaining 0.2% final DMSO concentration). For mouse LBAT, incubation mix was prepared by adding test inhibitor dilutions (3-fold serial dilution in DMSO, 10 points) in MEM-alpha (without FBS) containing 0.3 μM 3H-taurocholic acid and 25 μM cold taurocholic acid maintaining 0.2% final DMSO concentration).
50 μL of incubation mix containing test inhibitors was then added to the wells (in duplicate) and the plates were incubated for 20 minutes in a CO2 incubator at 37° C. After incubation, the reaction was stopped by keeping the plates on ice water mix for 2-3 minutes and then the incubation mix was aspirated completely from the wells. The wells were washed two times with 250 μL of chilled unlabelled 1 mM taurocholic acid dissolved in HEPES (Gibco 15630080)-buffered (10 mM) HBSS (Gibco 14175079) (pH 7.4). The plates were tapped against a paper towel after every wash to ensure maximum removal of blocking buffer.
100 μL of MicroScint-20 (PerkinElmer 6013621) was added to the wells and kept overnight at room temperature before reading the plates in TopCount NXT™ Microplate Scintillation and Luminescence Counter from PerkinElmer under 3H Test protocol (set at 120 seconds reading time per well, with normal plate orientation).
Preparation of Test Compound Dilutions
All test compounds were provided in powder form at room temperature. 10 mM DMSO stocks of the test compounds were prepared, aliquoted and stored at −20° C. From the 10 mM DMSO stock of the compounds, a 3-fold serial dilution in DMSO was prepared to get a total of 10 dilutions of the test compounds. 0.5 μL of this dilution in DMSO was added to 250 μL of FBS-free basal media containing 3H-taurocholic acid and cold taurocholic acid to prepare the incubation mixture.

Bioavailability studies = assay type: in vivo, Male mice (C57BL/6 or CD1) or Wistar rats; details: male, plasma; single intravenous dose 1 mg/kg and single oral dose 10 mg/kg; species per compound not given
Description: Male mice (C57BL/6 or CD1) or Wistar rats of 8-9 weeks old were used. For each test compound, two groups of 3 animals each were used. One group was administered a single intravenous dose of 1 mg/kg (vehicle 100% DMSO) through the tail vein and the other group was administered a single oral dose of 10 mg/kg through gavage needle. The group that was administered an oral dose was fasted overnight. Blood samples were collected after 0.083, 0.25, 0.5, 1, 2, 4, 6, 8 and 24 hours following intravenous administration, and after 0.25, 0.5, 1, 2, 4, 6, 8 and 24 hours following oral administration. Blood samples were taken from saphenous vein. 0.2% EDTA was used as the anticoagulant. The samples were analyzed by a discovery grade bioanalytical method developed for the estimation of test compound in plasma, using an LC-MS/MS system.

Structure (SMILES) | IC50 (Human LBAT) [nM] | bioavailability (Bioavailability studies) [%]
CCCCC1CN(c2ccccc2)c2cc(SCC)c(OCC(C)(C)C(=O)O)cc2S(=O)(=O)N1C (single isomer, unassigned) [6, enantiomer 2] | 6.2 | 
CCCCC1CN(c2ccccc2)c2cc(SCC)c(OCC(C)(C)C(=O)O)cc2S(=O)(=O)N1C (centres unmarked) [Example 5, 3-((3-Butyl-7-(ethylthio)-2-methyl-1,1-dioxido-5-phenyl-2,3,4,5-tetrahydro-1,2,5-benzothiadiazepin-8-yl)oxy)-2,2-dimethylpropanoic acid] | 8.9 | 
CCCCC1CN(c2ccccc2)c2cc(SC)c(OCC(C)(C)C(=O)O)cc2S(=O)(=O)N1C (single isomer, unassigned) [2, enantiomer 2] | 2.3 | 100
CCCCC1CN(c2ccc(F)cc2)c2cc(SC)c(OCC(C)(C)C(=O)O)cc2S(=O)(=O)N1C (centres unmarked) [Example 13, 3-((3-butyl-5-(4-fluorophenyl)-2-methyl-7-(methylthio)-1,1-dioxido-2,3,4,5-tetrahydro-1,2,5-benzothiadiazepin-8-yl)oxy)-2,2-dimethylpropanoic acid] | 3.3 | 
CCCCC1CN(c2ccccc2)c2cc(SC)c(OCC(C)(OC)C(=O)O)cc2S(=O)(=O)N1C (centres unmarked) [Example 22, 3-((3-Butyl-2-methyl-7-(methylthio)-1,1-dioxido-5-phenyl-2,3,4,5-tetrahydro-1,2,5-benzothiadiazepin-8-yl)oxy)-2-methoxy-2-methylpropanoic acid] | 28 | 
CCCCC1CN(c2ccccc2)c2cc(SC)c(OCC(C)(OC)C(=O)O)cc2S(=O)(=O)N1C (single isomer, unassigned) [Example 23, 3-((3-Butyl-2-methyl-7-(methylthio)-1,1-dioxido-5-phenyl-2,3,4,5-tetrahydro-1,2,5-benzothiadiazepin-8-yl)oxy)-2-methoxy-2-methylpropanoic acid] | 14 | 
CCCCC1CN(c2ccccc2)c2cc(SC)c(OCC(C)(OC)C(=O)O)cc2S(=O)(=O)N1C (single isomer, unassigned) [24, diastereomer 2] | 16 | 
CCCCC1CN(c2ccccc2)c2cc(SC)c(OCC(OC)C(=O)O)cc2S(=O)(=O)N1C (single isomer, unassigned) [32, diastereomer 1] | 22 | 
CCCCC1CN(c2ccccc2)c2cc(SC)c(OCC3(C(=O)O)CC3)cc2S(=O)(=O)N1C (single isomer, unassigned) [4, enantiomer 2] | 7.4 | 17
CCCCC1CN(c2ccccc2)c2cc(SCC)c(OCC3(C(=O)O)CC3)cc2S(=O)(=O)N1C (single isomer, unassigned) [8, enantiomer 1] | 5 | 40
CCCCC1CN(c2ccccc2)c2cc(SC)c(OCC3(C(=O)O)CC3)cc2S(=O)(=O)N1C (centres unmarked) [Example 3, 1-(((3-Butyl-2-methyl-7-(methylthio)-1,1-dioxido-5-phenyl-2,3,4,5-tetrahydro-1,2,5-benzothiadiazepin-8-yl)oxy)methyl)cyclopropane-1-carboxylic acid] | 13 | 
CCCCC1CN(c2ccc(F)cc2)c2cc(SCC)c(OCC(O)C(=O)O)cc2S(=O)(=O)N1C (centres unmarked) [Example 33, 3-((3-butyl-7-(ethylthio)-5-(4-fluorophenyl)-2-methyl-1,1-dioxido-2,3,4,5-tetrahydro-1,2,5-benzothiadiazepin-8-yl)oxy)-2-hydroxypropanoic acid] | 6 | 
CCCCC1CN(c2ccccc2)c2cc(SCC)c(OCC3(C(=O)O)CC3)cc2S(=O)(=O)N1C (centres unmarked) [Example 7, 1-(((3-Butyl-7-(ethylthio)-2-methyl-1,1-dioxido-5-phenyl-2,3,4,5-tetrahydro-1,2,5-benzothiadiazepin-8-yl)oxy)methyl)cyclopropane-1-carboxylic acid] | 25 | 
CCCCC1CN(c2ccccc2)c2cc(SC)c(OCC(C)(OC)C(=O)O)cc2S(=O)(=O)N1C (single isomer, unassigned) [24, diastereomer 1] | 8.4 | 
